Measured values as given in ChEMBL document CHEMBL1201862, “PubChem BioAssay data set” (2004).
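96-well plates; 48 h exposure; 5 concentrations. Endpoints by linear interpolation between flanking doses. Not reached: highest tested concentration assigned. The concentration for 50% growth inhibition is given as GI50.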 Calls of active or inactive are those of the source. Rule as the data show it: active = GI50 up to about 1.1 µM and inactive = higher.

Key:
Assay in all cases: NCI tumour cell line growth inhibition, 48 h
HT-29 = tested on: HT-29
IGROV-1 = tested on: IGROV-1
OVCAR-5 = tested on: OVCAR-5
SF-539 = tested on: SF-539
MOLT-4 = tested on: MOLT-4
HOP-62 = tested on: HOP-62
U-251 = tested on: U-251
EKVX = tested on: EKVX
NCI-H23 = tested on: NCI-H23
SF-268 = tested on: SF-268
SF-295 = tested on: SF-295
CAKI-1 = tested on: CAKI-1
COLO 205 = tested on: COLO 205
SK-MEL-2 = tested on: SK-MEL-2
SNB-19 = tested on: SNB-19
NCI-H460 = tested on: NCI-H460
A549 = tested on: A549
MCF7 = tested on: MCF7
HL-60 = tested on: HL-60
HCC 2998 = tested on: HCC 2998

Compound	GI50 (HT-29)	GI50 (IGROV-1)	GI50 (OVCAR-5)	GI50 (SF-539)	GI50 (MOLT-4)	GI50 (HOP-62)	GI50 (U-251)	GI50 (EKVX)	GI50 (NCI-H23)	GI50 (SF-268)	GI50 (SF-295)	GI50 (CAKI-1)	GI50 (COLO 205)	GI50 (SK-MEL-2)	GI50 (SNB-19)	GI50 (NCI-H460)	GI50 (A549)	GI50 (MCF7)	GI50 (HL-60)	GI50 (HCC 2998)
CC(CO)(CO)N1C(=O)C2C3C=CC(C3)C2C1=O (stereo not given)	> 100 µM (inactive)	> 100 µM (inactive)	> 100 µM (inactive)	> 100 µM (inactive)	> 100 µM (inactive)	> 100 µM (inactive)	> 100 µM (inactive)	> 100 µM (inactive)	> 100 µM (inactive)	> 100 µM (inactive)	> 100 µM (inactive)	> 100 µM (inactive)	> 100 µM (inactive)	> 100 µM (inactive)	> 100 µM (inactive)	> 100 µM (inactive)	> 100 µM (inactive)	> 100 µM (inactive)	> 100 µM (inactive)	> 100 µM (inactive)
CCC(Sc1cc(Cl)c(C)cc1S(=O)(=O)Nc1nc(N)nc(N(C)C)n1)C(=O)O (stereo not given)	> 10 µM (inactive)	> 10 µM (inactive)	> 10 µM (inactive)	> 10 µM (inactive)	> 10 µM (inactive)	> 10 µM (inactive)	> 10 µM (inactive)	> 10 µM (inactive)	> 10 µM (inactive)	> 10 µM (inactive)	> 10 µM (inactive)	> 10 µM (inactive)	> 10 µM (inactive)	> 10 µM (inactive)	> 10 µM (inactive)	> 10 µM (inactive)	> 10 µM (inactive)	> 10 µM (inactive)	> 10 µM (inactive)	> 10 µM (inactive)
COc1cccc(CCn2c(N)c(C#N)c3ccc([N+](=O)[O-])cc3c2=O)c1	> 31.6 µM (inactive)	> 31.6 µM (inactive)	> 31.6 µM (inactive)	> 10 µM (inactive)	> 31.6 µM (inactive)	> 31.6 µM (inactive)	> 100 µM (inactive)	> 31.6 µM (inactive)	> 46.5 µM (inactive)	> 46.5 µM (inactive)	> 31.6 µM (inactive)	> 46.5 µM (inactive)	> 100 µM (inactive)	> 46.5 µM (inactive)	98.2 µM (inactive)	> 46.5 µM (inactive)	> 46.5 µM (inactive)	> 31.6 µM (inactive)	3.78 µM (inactive)	> 46.5 µM (inactive)
COc1cc(C=O)cc(/C=N/c2ccc(S(N)(=O)=O)cc2)c1O	13.7 µM (inactive)	> 100 µM (inactive)	26.7 µM (inactive)	2.93 µM (inactive)	18 µM (inactive)	13.5 µM (inactive)	5.36 µM (inactive)	56.2 µM (inactive)	> 100 µM (inactive)	4.13 µM (inactive)	3.64 µM (inactive)	7.38 µM (inactive)	16.6 µM (inactive)	4.47 µM (inactive)	11.3 µM (inactive)	26.2 µM (inactive)	44.1 µM (inactive)	> 100 µM (inactive)	25.4 µM (inactive)	19.3 µM (inactive)
COc1ccc2nc3c(C(=O)NCCN(C)C)cccc3cc2c1	1.29 µM (inactive)	2.03 µM (inactive)	2.1 µM (inactive)	3.15 µM (inactive)	0.569 µM (active)	2.63 µM (inactive)	3.48 µM (inactive)	2.34 µM (inactive)	2.09 µM (inactive)	2.82 µM (inactive)	1.96 µM (inactive)	0.103 µM (active)	0.893 µM (active)	2.49 µM (inactive)	2.23 µM (inactive)	0.724 µM (active)	1.49 µM (inactive)	1.35 µM (inactive)	1.4 µM (inactive)	3.79 µM (inactive)
CCCNC(=O)C(C)C1CCC2(C)C=CC(=O)C(C)=C2C1O (stereo not given)	> 100 µM (inactive)	> 100 µM (inactive)	> 100 µM (inactive)	> 100 µM (inactive)	> 100 µM (inactive)	> 100 µM (inactive)	> 100 µM (inactive)	> 100 µM (inactive)	> 100 µM (inactive)	> 100 µM (inactive)	> 100 µM (inactive)	> 100 µM (inactive)	> 100 µM (inactive)	> 100 µM (inactive)	> 100 µM (inactive)	> 100 µM (inactive)	> 100 µM (inactive)	> 100 µM (inactive)	> 100 µM (inactive)	> 100 µM (inactive)
[N-]=[N+]=CC(=O)CCC(NC(=O)C(CCC(=O)C=[N+]=[N-])NC(=O)CCC(N)C(=O)O)C(=O)O (stereo not given)	> 100 µM (inactive)	> 100 µM (inactive)	> 100 µM (inactive)	> 100 µM (inactive)	> 100 µM (inactive)	> 100 µM (inactive)	> 100 µM (inactive)	> 100 µM (inactive)	> 100 µM (inactive)	> 100 µM (inactive)	> 100 µM (inactive)	> 100 µM (inactive)	> 100 µM (inactive)	> 100 µM (inactive)	> 100 µM (inactive)	> 100 µM (inactive)	> 100 µM (inactive)	> 100 µM (inactive)	> 100 µM (inactive)	> 100 µM (inactive)
COc1ccc2cc(CN3CCC(C4CCN(Cc5ccc6cc(OC)ccc6c5)CC4)CC3)ccc2c1	2.2 µM (inactive)	8.77 µM (inactive)	21.8 µM (inactive)	3.19 µM (inactive)	2.2 µM (inactive)	6.43 µM (inactive)	2.52 µM (inactive)	11.9 µM (inactive)	17.1 µM (inactive)	3.16 µM (inactive)	2.99 µM (inactive)	2.73 µM (inactive)	1.78 µM (inactive)	4.44 µM (inactive)	3.2 µM (inactive)	2.17 µM (inactive)	24.9 µM (inactive)	4.06 µM (inactive)	2.33 µM (inactive)	0.18 µM (active)
C=C(Cl)C(Br)(CCl)CCC(Br)C(C)(C)Cl (stereo not given)	2.02 µM (inactive)	5.82 µM (inactive)	7.21 µM (inactive)	6.95 µM (inactive)	1.6 µM (inactive)	2.76 µM (inactive)	7.24 µM (inactive)	5.58 µM (inactive)	3.75 µM (inactive)	2.93 µM (inactive)	5.77 µM (inactive)	4.95 µM (inactive)	4.53 µM (inactive)	6.24 µM (inactive)	3.48 µM (inactive)	6.81 µM (inactive)	17.7 µM (inactive)	3.38 µM (inactive)	2.43 µM (inactive)	14.1 µM (inactive)
O=C1NC(=O)C(CC2CCCCCCCCCCC2=O)C(=O)N1 (stereo not given)	74 µM (inactive)	> 100 µM (inactive)	> 100 µM (inactive)	> 100 µM (inactive)	39.6 µM (inactive)	> 100 µM (inactive)	> 100 µM (inactive)	> 100 µM (inactive)	> 100 µM (inactive)	> 100 µM (inactive)	> 100 µM (inactive)	> 100 µM (inactive)	> 100 µM (inactive)	> 100 µM (inactive)	> 100 µM (inactive)	> 100 µM (inactive)	> 100 µM (inactive)	> 100 µM (inactive)	4.94 µM (inactive)	> 100 µM (inactive)
C[C@H]1COC(c2ccccn2)=N1	> 100 µM (inactive)	> 100 µM (inactive)	> 100 µM (inactive)	> 100 µM (inactive)	> 100 µM (inactive)	> 100 µM (inactive)	> 100 µM (inactive)	> 100 µM (inactive)	> 100 µM (inactive)	> 100 µM (inactive)	> 100 µM (inactive)	> 100 µM (inactive)	> 100 µM (inactive)	> 100 µM (inactive)	> 100 µM (inactive)	> 100 µM (inactive)	> 100 µM (inactive)	> 100 µM (inactive)	> 100 µM (inactive)	> 100 µM (inactive)
C/C(=N\N=C(/S)N1CCCCCC1)c1cccc[n+]1[O-]	0.31 µM (active)	1.91 µM (inactive)	21.4 µM (inactive)	4.54 µM (inactive)	0.129 µM (active)	1.12 µM (active)	6.28 µM (inactive)	7.23 µM (inactive)	5.82 µM (inactive)	9.29 µM (inactive)	5.3 µM (inactive)	6.37 µM (inactive)	0.499 µM (active)	2.37 µM (inactive)	7.41 µM (inactive)	1.8 µM (inactive)	4.36 µM (inactive)	2.64 µM (inactive)	0.336 µM (active)	1.71 µM (inactive)
COc1ccc(/C=c2/s/c(=C(\C#N)c3nc4ccccc4[nH]3)n(-c3ccccc3)c2=O)cc1	6.12 µM (inactive)	> 54.5 µM (inactive)	> 100 µM (inactive)	25.1 µM (inactive)	53.6 µM (inactive)	17.1 µM (inactive)	48.1 µM (inactive)	> 69.3 µM (inactive)	22.6 µM (inactive)	31.7 µM (inactive)	15.3 µM (inactive)	> 69.3 µM (inactive)	36.2 µM (inactive)	> 77.6 µM (inactive)	47.1 µM (inactive)	9.75 µM (inactive)	51.2 µM (inactive)	45.1 µM (inactive)	> 100 µM (inactive)	> 82.8 µM (inactive)
Oc1ccc(-c2nc3ccc4ccccc4c3c3c2CCCC3)c(O)c1	11.9 µM (inactive)	4.34 µM (inactive)	20 µM (inactive)	42.3 µM (inactive)	> 48.3 µM (inactive)	57.7 µM (inactive)	4.1 µM (inactive)	28.8 µM (inactive)	27.9 µM (inactive)	22.2 µM (inactive)	37.2 µM (inactive)	42.5 µM (inactive)	11.1 µM (inactive)	9.08 µM (inactive)	16.3 µM (inactive)	19.6 µM (inactive)	23.2 µM (inactive)	27.7 µM (inactive)	2.55 µM (inactive)	36.5 µM (inactive)
